Assay results from US20130195770A1, “COMPOSITION AND METHOD FOR REDUCING ATHEROSCLEROTIC LESIONS” (DuPont Nutrition Bioscience ApS, priority 2010, published 2013).

How the values were obtained:
CaCo-2 cells [1] = assay: Uptake of micellar cholesteryl oleate by CaCo-2 cells; assay type: in vitro ADME, Human; conditions: micelles containing [1,2-3H] cholesteryl oleate vs labeled cholesterol, FIG. 1B
Excerpt: (§1) Human colon adenocarcinoma (Caco-2) cells were kindly provided by J T Rasmussen (Department of Molecular Biology Aarhus University C. F. M0llers Alle 3DK-8000 Aarhus CDenmark). Cells were routinely maintained in NUNCLON flasks in Dulbecco's […] (DMEM) supplemented with 4.5g/1 glucose. 10% heat-inactivated fetal bovine serum (FBS), 1% nonessential amino acid (NEAA), and 1% antibiotics (complete medium), as previously described (Hidalgo I J. Raub T J. Borchardt R T, Gastroenterology, (1989) ar;96(3):736-49). Once the flasks reached 80% confiuency, the cells were dispersed and seeded into 24-well plates at density 10^5 cells/well in DMEM supplemented with 10% FBS and 1% NEAA. […]
(§2) Micelles were prepared according to the method described by Kirana (Kirana C. Rogers P F, Bennett L E, Abevwardena M Y, Patten G S, J Agric Food Chem. (2005) Jun. 1; 53(1 1):4623-7) with slight modifications. […] The particle size of micelles was determined by dynamic light scattering (DLS) with use of the Malvern Zetasizer Nano series machine using latex 60 nm Nanosphere Size Standard.
Differentiated Caco-2 cells were incubated at 37° C. for 1, 3 and 5 hours with micellar solutions containing ^3H-labelled cholesteryl oleate according to the method described above. […] For quantitative analysis ^14C-cholesterol was used as an external standard to correct for the extraction efficiency. […]

[2] = system: wild type male mice (C57BL/6J); assay: Intestinal absorption of cholesteryl oleate in mice, plasma dual isotope ratio method; assay type: in vivo; conditions: oral bolus [14C]-cholesteryl oleate in skimmed milk, plasma after three days; p<0.001; FIG. 2B
Experimental: The net intestinal absorption of cholesterol and cholesteryl esters was measured using the plasma dual isotope ratio method described in Wang et al (Journal of Lipid Research, [2003] 44, 1042-1059). This method is based on the simultaneous intragastric (IG) and intravenous (IV) administration of [^3H] -cholesterol and [^14C] -cholesterol, respectively, and measurement of plasma cholesterol isotope ratios at a set point in time. By definition, the IV [^14C]-cholesterol dose corresponds to “100% absorption”, whereas the [^3H]-cholesterol found in the blood reflects the absorption by the gastrointestinal tract. The method allows correction for post-absorptive cholesterol metabolism and for colonic handling of the malabsorbed labelled cholesterol by defining Fifteen wild type male mice (C57BL/6J), age of 5 weeks were randomly assigned into 3 groups. An amount of 2.5 μCi of [^3H]-cholesterol was dissolved in 100 μl of phosphate buffered saline (PBS) and injected into the tail vein of non fasted and not-anesthetized animals. The animal were then given an oral bolus (IG) dose of either [^14C]-cholesterol, [^14C]-cholesterol+unlabeled cholesteryl oleate (molar ratio 1:1) or [^14C]-cholesteryl oleate dissolved in skimmed milk. […] The percent of cholesterol absorption in plasma was calculated using (1).

[3] = system: wild type male mice (C57BL/6J); assay: Intestinal absorption of cholesterol in mice, plasma dual isotope ratio method, with added cholesteryl oleate; assay type: in vivo; conditions: oral bolus [14C]-cholesterol + unlabeled cholesteryl oleate (molar ratio 1:1) in skimmed milk, plasma after three days; p<0.05; FIG. 2A
Experimental: The net intestinal absorption of cholesterol and cholesteryl esters was measured using the plasma dual isotope ratio method described in Wang et al (Journal of Lipid Research, [2003] 44, 1042-1059). This method is based on the simultaneous intragastric (IG) and intravenous (IV) administration of […], and measurement of plasma cholesterol isotope ratios at a set point in time. By definition, the […] corresponds to “100% absorption”, whereas the [^3H]-cholesterol found in the blood reflects the absorption by the gastrointestinal tract. The method allows correction for post-absorptive cholesterol metabolism and for colonic handling of the malabsorbed labelled cholesterol by […] Fifteen wild type male mice (C57BL/6J), age of 5 weeks were randomly assigned into 3 groups. An amount of 2.5 μCi of [^3H]-cholesterol was dissolved in 100 μl of phosphate buffered saline (PBS) and injected into the tail vein of non fasted and not-anesthetized animals. The animal were then given an oral bolus (IG) dose of either [^14C]-cholesterol, [^14C]-cholesterol+unlabeled cholesteryl oleate (molar ratio 1:1) or [^14C]-cholesteryl oleate dissolved in skimmed milk. […] The percent of cholesterol absorption in plasma was calculated using (1).

Transgenic mice = assay: Aorta surface covered by atherosclerotic lesions, en face ORO staining; assay type: in vivo; conditions: 28 weeks
Excerpt: The surface of aorta covered with atherosclerotic lesions was quantified as described by Palinski et al. (1994) and Zampolli et al. (2006). Non-fasted animals were anesthetized with pentobarbital injected intraperitoneally. Next, maximum volume of blood was collected from the heart by direct cardiac puncture of the right ventricle. Blood was kept for further analyses as described above. The heart and arterial tree were then flushed with a heparin-containing cardioplegic solution via a cannula inserted into the left ventricle, followed by perfusion with formalin for 5 minutes. The arterial tree was exposed, branching arteries were removed and entire aorta was dissected from the aortic arch down to the iliac bifurcation. Using a stereomicroscope, aortas were cleaned from periadventitial tissue; remaining branches were cut off and opened longitudinally by incision following the inner curvature of the aortic arch and the ventral side of the aorta. Additional incisions followed the outer curvature of the arch to the subclavian artery. An Oil Red 0 (ORO) staining solution was prepared by diluting the ORO stock solution (5 mg/ml in 2-propanol; Sigma Aldrich) with deionized water (6:4). Dissected aortas were stained for 30 minutes with ORO, followed by rinsing with 2-propanol and deionized water. Stained aortas were then laid flat on the microscope slide with endothelial side facing upwards. The tissues were mounted with aqueous mounting agent (Aquatex®, Merck Chemicals, Darmstadt, Germany) and covered with glass slide cover slip.
Digital images of the slides were obtained through the 48-bit color scanner (Canoscan 9950F, Canon) with 1200 DPI resolution. The images were captured in Photoshop CS3 Extended software and converted to gray scale. After further processing, including sharpness, contrast and brightness adjustments, and the image of aorta was printed out in two copies. […] Images of a hand-drawn aorta outlines and regions (patches) matching atherosclerotic lesions were then scanned and re-imported into Adobe Photoshop and the images were then evaluated obtain the percent of aorta covered with atherosclerotic lesions. Briefly, in the digitized image of entire aorta and the image of the patches corresponding to lesions, red outlined areas were converted to black and the blackness values for all pixels in the image were summed and counted.
Transgenic mice were randomized into 5 dietary regiments: (1) Normal chow (NC), (2) NC+0.2% cholesterol oleate (CLE), (3) Western type diet (WD) containing 0.2% cholesterol, (4) WD containing 0.2% cholesterol and 0.2% CLE, (5) WD containing 0.1% cholesterol and 0.1% CLE. The extent of the lesions was quantified as percent area positive to lipid staining by ORO in the entire aorta after 28 weeks of experimental treatments.

CaCo-2 cells [4] = assay: Uptake of micellar cholesterol by CaCo-2 cells with or without unlabeled cholesteryl oleate; assay type: cell-based, Human; conditions: CaCo-2 monolayers, 45 min at 37° C., [1,2-3H] cholesterol micelles with or without unlabeled cholesteryl oleate; p<0.001; FIG. 1A
Excerpt: as §1, §2
Monolayers were incubated at 37° C. for 45 min in micellar solutions containing [1,2-^3H] cholesterol with or without unlabeled cholesteryl oleate. […] The cells were analyzed as described above. […]

CCCCCCCC/C=C\CCCCCCCC(=O)O[C@H]1CC[C@@]2(C)C(=CC[C@H]3[C@@H]4CC[C@H]([C@H](C)CCCC(C)C)[C@@]4(C)CC[C@@H]32)C1 [cholesteryl oleate]
fold less labeled sterol in cells incubated with cholesteryl oleate micelles compared to cholesterol micelles (CaCo-2 cells [1]): approximately 2 fold
reduction in cholesterol uptake compared to mice treated with [14C]-cholesterol [2]: 50%
reduction in cholesterol adsorption compared to [14C]-cholesterol treated mice [3]: 12%
effect on atherosclerotic lesions in Western type diet (Transgenic mice; WD vs WD+0.2% CLE and WD+0.1% CLE, FIGS. 3 and 4): lowered atherosclerotic lesions
rate of atherosclerosis, WD+0.2% CLE compared with WD+0.1% CLE (Transgenic mice; mice fed WD+0.2% CLE): higher rates of atherosclerosis than mice fed with WD+0.1% CLE
total plaque area (percent area positive to ORO in the entire aorta) (Transgenic mice; normal chow (NC)+0.2% CLE): 1.2±0.9%
difference in plaque formation between NC and NC+0.2% CLE (Transgenic mice; normal chow): no difference between those two treatments
more cholesterol accumulated by cells incubated with cholesterol micelles alone compared to micelles containing both cholesterol and cholesteryl oleate (CaCo-2 cells [4]): 30%
